Experimental data as given in publication PMC6345779, “Hypoculoside, a sphingoid base-like compound from Acremonium disrupts the membrane integrity of yeast cells” (Scientific Reports, 2019).
pIC50: −log10 of the molar value.

How the values were obtained:
BY4743 cells = assay: Propidium iodide (PI)-staining assay of plasma membrane integrity; assay type: cell-based, Saccharomyces cerevisiae; details: 5.3 µM, after 2 hours
Description: (§1) Figure 8 Hypoculoside but not hypoculine disrupts the membrane integrity of yeast cells. (A) Wild type yeast cells pre-treated with either DMSO or hypoculoside (5.4 μM) were exposed to FM 4-64FX. Uptake of FM 4-64FX after 0′, 30′ and 120′ was analyzed by fluorescence microscopy of fixed cells. (B) Yeast cells were incubated with either DMSO or hypoculoside or hypoculine at different concentrations (1.8, 3.5 and 5.3 µM) for 30′ and 2 hours. They were then treated with propidium iodide (PI) and percentage of PI-staining cells was assayed by fluorescence microscopy. Representative images of cells visualized by bright field and fluorescence microscopy are shown along with quantification of PI-staining cells (N = 100 cells) in (C).
We then tested whether hypoculoside causes membrane leakage using the membrane impermeant dye propidium iodide (PI). […] We then incubated the cells with PI and visualized its uptake by fluorescence microscopy. […]
BY4743 cells (OD600 nm ≈ 1) were exposed to various concentrations of hypoculoside or hypoculine or DMSO in YPD for 30′ and 2 hours. […] PI uptake by cells was assayed by bright-field and fluorescence microscopy [Excitation/Emission (nm): 535/617] and the percentage of PI-staining cells (N ≥ 100) was calculated.

[1] = system: Staphylococcus aureus (ATCC 25923); assay: Antibacterial growth inhibition assay; assay type: cell-based; details: ATCC25923, Gram-positive, read-out: IC50 against Staphylococcus aureus
Description: (§2) Effect of hypoculoside on the growth of three bacterial strains Staphylococcus aureus (ATCC 25923), Pseudomonas aeruginosa (ATCC 9027) and Klebsiella aerogenes (ATCC 13048) was assessed as previously described. Cytotoxicity of hypoculoside on the A549 human lung cell line and the pancreatic carcinoma cell lines MIA PaCa-2 and PANC-1 was determined as described before. A549 and MIA PaCa-2 were seeded at 1,500 cells per well, and PANC-1 cells were seeded at 2,500 cells per well in a 384-well microplate. Cells were treated with hypoculoside at various concentrations and incubated for 72 hours at 37 °C in the presence of 5% CO2. Cytotoxic effect of hypoculoside was measured using the PrestoBlue™ cell viability reagent (Life Technologies). Following incubation of the microplates with the dye for 2 hours, the fluorescence reading (Excitation/Emission: 560 nm/590 nm) was recorded using the Tecan Infinite M1000 Pro reader.
(§3) Legends for Supplementary figures and tables
(§4) Figure S1 Analysis of hypoculoside by MS/MS
(§5) Collision-Induced dissociation (CID) MS/MS fragmentation spectra of hypoculoside (8) generated at energies of 10 eV, 20 eV and 40 eV are depicted in panels A, B and C […]
(§6) Figure S2 Hypoculoside has antifungal, antibacterial and mammalian cytotoxic […]
(§7) A. Logarithmically growing Candida albicans cells were exposed to hypoculoside and amphotericin B at the indicated concentrations in triplicates in a 96-well microplate. A picture of the microplate after 24 hours of incubation at 30 °C is […]
(§8) B. Saccharomyces cerevisiae cultures in duplicate were treated with hypoculoside at the indicated concentrations in YPD medium at 30 °C for 24 hours. Growth of the yeast cultures as measured by OD600 nm is plotted against hypoculoside concentration. Yeast cells treated with either DMSO or 21 µM hypoculoside for 24 hours were then washed in YPD and plated at different dilutions on a YPD agar and incubated at 30 °C. The YPD agar plate was photographed after 2 […]
C. […]

[2] = system: Klebsiella aerogenes (ATCC 13048); assay: Antibacterial growth inhibition assay; assay type: cell-based; details: Gram-negative
Description: as §2, §3, §4, §5, §6, §7, §8
C. […]

[3] = system: Pseudomonas aeruginosa (ATCC 9027); assay: Antibacterial growth inhibition assay; assay type: cell-based; details: Gram-negative
Description: as §2, §3, §4, §5, §6, §7, §8
C. […]

Wild type yeast cells = assay: FM 4-64FX fluorescence microscopy (endocytosis / membrane integrity); assay type: cell-based, Saccharomyces cerevisiae; details: 5.4 µM pre-treatment for 30 minutes
Description: To test if hypoculoside affects endocytosis, we used a dye FM 4–64FX which is a fixable analog of the FM 4-64 membrane stain. We incubated logarithmically growing yeast cells with either DMSO or hypoculoside for 30 minutes and then washed the cells off the compound and resuspended them in fresh growth medium containing FM 4-64FX to visualize endocytosis and vacuolar structure. In DMSO pre-treated cells, FM 4-64FX first stained the plasma membrane (Fig. 8A) at t = 0 and stained the cytoplasmic structures after 30′ indicating its uptake by endocytosis (Fig. 8A).
as §1, with “(B) Yeast cells were incubated with either DMSO or hypoculoside or hypoculine at different concentrations (1.8, 3.5 and 5.3 µM) for 30′ and 2 hours.” left out
Labelling of yeast cells with FM4-64FX (Invitrogen) was done as previously reported. […] The images were acquired using an inverted fluorescence microscope ZEISS LSM 5 LIVE (Carl Zeiss, Oberkochen, Germany).

For `CC(N)C(O)CCCCCCCCCCCCCCCCCCC(O)C(C)OC1OC(CO)C(O)C(O)C1O` (centres unmarked) [hypoculoside, Hypoculoside], the “cells that had internalized PI” value (BY4743 cells) was “about 60%”, the pIC50 [1] was 4.93 and the “inhibitory activity against Klebsiella aerogenes” value [2] was “not against Gram-negative bacteria”. The “inhibitory activity against Pseudomonas aeruginosa” value [3] was “not against Gram-negative bacteria” and the “FM 4-64FX staining pattern of pre-treated cells” value (Wild type yeast cells) was “stained the cytoplasmic contents even at t = 0”.
